{"source": "patent US8097733B2", "about": "“Pyrazole derivatives as 5-LO-inhibitors” (Pfizer Inc., priority 2007, dated 2012)", "key": {"[1]": {"assay": "Emesis evaluation in beagle dogs, IV infusion", "format": "in vivo", "conditions": "8-12 kg beagle dogs, loading dose followed by slow infusion", "description": "The occurrence of these gastrointestinal symptoms after administration of these compounds limited their clinical utility. Experiments are undertaken to differentiate local gastrointestinal emetic stimuli during dissolution and absorption of an oral compound from emetic stimuli produced during systemic exposure through the bloodstream. […] These findings are observed after 8-12 kg purpose-bred beagle dogs are administered 4-(3-{[4-(1-methyl-1H-pyrazol-5-yl)phenyl]thio}phenyl)tetrahydro-2H-pyran-4-carboxamide by IV infusion, using a loading dose followed by a slow infusion to attain a peak blood level over 30 minutes to 1 hour in duration. More specifically, compounds are diluted in phosphate buffered saline to a concentration where 10 ml/kg total volume was administered through an intravenous catheter using an infusion pump, with approximately 90% of the total dose being delivered in the first 5 minutes, and the remaining dose administered over the next 25 minutes. Similar delivery methods to produce an exposure that approximates the systemic pharmacokinetic profile seen with oral delivery are anticipated to give similar results. […] For compounds of the invention, emesis, can for example be evaluated by administering the named compound orally at doses of 10 mg per kg, 100 mg per kg fasted, and 100 mg per kg fed, and evaluating emesis in dogs. […]"}, "recombinant human 5-LOX": {"target": "T1, recombinant human 5-LOX (Homo sapiens, UniProt P09917)", "T1 sequence (P09917 1-674)": "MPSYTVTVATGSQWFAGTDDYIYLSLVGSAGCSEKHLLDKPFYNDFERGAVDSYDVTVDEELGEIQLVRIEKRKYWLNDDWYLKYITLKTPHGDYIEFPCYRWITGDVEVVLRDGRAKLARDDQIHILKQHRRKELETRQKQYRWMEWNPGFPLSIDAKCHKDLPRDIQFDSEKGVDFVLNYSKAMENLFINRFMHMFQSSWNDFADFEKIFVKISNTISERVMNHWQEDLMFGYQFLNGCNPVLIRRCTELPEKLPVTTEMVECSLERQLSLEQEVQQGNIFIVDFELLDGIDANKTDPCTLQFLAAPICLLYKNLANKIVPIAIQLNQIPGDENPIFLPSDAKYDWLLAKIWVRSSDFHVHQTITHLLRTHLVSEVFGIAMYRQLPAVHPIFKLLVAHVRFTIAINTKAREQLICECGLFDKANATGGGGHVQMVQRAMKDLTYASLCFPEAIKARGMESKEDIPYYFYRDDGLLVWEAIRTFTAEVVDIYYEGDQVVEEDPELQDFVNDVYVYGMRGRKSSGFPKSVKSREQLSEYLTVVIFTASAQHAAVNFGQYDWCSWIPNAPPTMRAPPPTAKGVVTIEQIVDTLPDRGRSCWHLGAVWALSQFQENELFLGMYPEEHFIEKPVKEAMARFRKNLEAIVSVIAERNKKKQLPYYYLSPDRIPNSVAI", "assay": "Fluorescence Intensity 5-LOX Enzyme Assay", "format": "biochemical", "conditions": "crude lysate of recombinant human 5-LOX; highest inhibitor concentration tested typically 25 μM", "outline": "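Crude lysate enzyme with H2DCFDA 10 μM (5 min dye pre-incubation), inhibitor pre-incubated 10 min; reaction started with 3 μM arachidonic acid plus 10 μM ATP in Tris pH 7.5, CaCl2, EDTA, 20 min at room temperature, acetonitrile stop. Fluorescein fluorescence; 7-point 4-parameter IC50, top 25 μM, 2.5% DMSO.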"}, "[2]": {"tested_on": "human whole blood (leukotriene and prostaglandin levels)", "assay": "Eicosanoid production from human whole blood", "format": "cell-based", "conditions": "human whole blood stimulated with calcium ionophore A23187 and arachidonic acid; ELISA", "outline": "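Pooled heparinized whole blood from healthy or asthmatic donors was preincubated with compound for 10 min at room temperature, with 2.5% DMSO final. It was stimulated with calcium ionophore A23187 plus arachidonic acid (30 μM) in 60% ethanol for 15 min at 37 °C. Plasma leukotrienes and prostaglandins were measured by ELISA.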"}, "[3]": {"tested_on": "eicosanoid production in the rat air pouch", "assay": "Carrageenan-induced eicosanoid production in the rat air pouch", "format": "in vivo", "conditions": "po, male Lewis rats, 3 mpk by gavage 1 hour prior to carrageenan"}}}
{"smiles": "Cn1nccc1-c1ccc(Sc2cccc(C3(C(N)=O)CCOCC3)c2)cc1", "note": "[4-(3-{[4-(1-methyl-1H-pyrazol-5-yl)phenyl]thio}phenyl)tetrahydro-2H-pyran-4-carboxamide]", "values": [{"measurement": "nausea and emesis", "setting": "[1]", "value": "produce nausea and emesis through systemic exposure"}]}
{"smiles": "CNC(=O)C1(c2cccc(Sc3ccc(-c4ccnn4C)cc3)c2F)CCOCC1", "note": "[Example 17, 4-(2-fluoro-3-{[4-(1-methyl-1H-pyrazol-5-yl)phenyl]thio}phenyl)-N-methyl-tetrahydro-2H-pyran-4-carboxamide]", "values": [{"measurement": "IC50", "setting": "recombinant human 5-LOX", "value": 146, "unit": "nM"}, {"measurement": "IC50", "setting": "[2]", "value": 962, "unit": "nM"}, {"measurement": "inhibition at 3 mg/kg", "setting": "[3]", "value": 83, "unit": "%"}]}
{"smiles": "C[C@H]1C[C@@](C#N)(c2cccc(Sc3cnc(Oc4ccnn4C)c(Cl)c3)c2F)CCO1", "note": "[52(4), (2S,4R)-4-(3-(5-chloro-6-(1-methyl-1H-pyrazol-5-yloxy)pyridin-3-ylthio)-2-fluorophenyl)-2-methyl-tetrahydro-2H-pyran-4-carbonitrile]", "values": [{"measurement": "IC50", "setting": "recombinant human 5-LOX", "value": 29.1, "unit": "nM"}, {"measurement": "IC50", "setting": "[2]", "value": 118, "unit": "nM"}, {"measurement": "inhibition at 3 mg/kg", "setting": "[3]", "value": 97, "unit": "%"}]}
{"smiles": "Cn1nccc1Oc1ncc(Sc2cccc(C3(C(N)=O)CCOCC3)c2)cc1Cl", "note": "[Example 41, 4-(3-(5-chloro-6-(1-methyl-1H-pyrazol-5-yloxy)pyridin-3-ylthio)phenyl)-tetrahydro-2H-pyran-4-carboxamide]", "values": [{"measurement": "IC50", "setting": "recombinant human 5-LOX", "value": 277, "unit": "nM"}, {"measurement": "IC50", "setting": "[2]", "value": 405, "unit": "nM"}, {"measurement": "inhibition at 3 mg/kg", "setting": "[3]", "value": 98, "unit": "%"}]}
